Numbered stars: 1 amine (or outer) side, 2 acyl side, 3 side chain; on linkers, the order of the positions; unused ones are H or OH. Bridge positions count the residues as written; N and C are the ends. Square brackets hold non-standard residues; d marks the D form. Peptide text beside a SMILES is read from it. * marks the point of attachment. hPhe(3,5-F2-4-CF3) = N[C@@H](CCc1cc(F)c(C(F)(F)F)c(F)c1)C(=O)O; hPhe(3-Cl-4-CF3) = N[C@@H](CCc1ccc(C(F)(F)F)c(Cl)c1)C(=O)O; hPhe(3-F,4-CF3) = N[C@@H](CCc1ccc(C(F)(F)F)c(F)c1)C(=O)O; X13 = O=C([C@H](CCc1ccc(OC(F)(F)F)c(Cl)c1)N[*:1])[*:2]; NMePhe(4-CF3) = CN[C@@H](Cc1ccc(C(F)(F)F)cc1)C(=O)O; NMedβ3hAla = C[C@H](CC(=O)[*:2])N(C)[*:1]; NMeGly(cPent) = CN[C@H](C(=O)O)C1CCCC1; NMeCha = CN[C@@H](CC1CCCCC1)C(=O)O; X124 = O=C([C@H]1COCCN1[*:1])[*:2]; Hyp = O=C(O)[C@@H]1C[C@@H](O)CN1; NMeCba = CN[C@@H](CC1CCC1)C(=O)O; NMeChg = CN[C@H](C(=O)O)C1CCCCC1; NMeD = CN[C@@H](CC(=O)O)C(=O)O; NMeL = CN[C@@H](CC(C)C)C(=O)O; NMeAc5c = CNC1(C(=O)O)CCCC1; NMeV = CN[C@H](C(=O)O)C(C)C; d(β3hA) = C[C@@H](N)CC(=O)O; NMeAbu = CC[C@H](NC)C(=O)O; Morpholide = C1CN(*)CCO1; NMeA = CN[C@@H](C)C(=O)O; NMeAib = CNC(C)(C)C(=O)O; Piperidide = C1CCN(*)CC1; dNMeA = CN[C@H](C)C(=O)O; Ac5c = NC1(C(=O)O)CCCC1; Aze = O=C(O)[C@@H]1CCN1; Ac4c = NC1(C(=O)O)CCC1; Ethyl(2-OH) = OCC*; NEtG = CCNCC(=O)O; Sar = CNCC(=O)O
What follows are compounds tested against protein-protein interaction between Kras and SOS1 (biotin-tagged human Kras loaded with GDP, His-tagged human SOS1) (Homo sapiens (Human), UniProt P01116, G12D) (assay: Protein-protein interaction inhibition between Kras and SOS1 (KrasG12D-SOS PPI) using AlphaScreen). Settings: AlphaScreen; biotin-tagged human Kras loaded with GDP, His-tagged human SOS1; read-out: KRAS G12D-SOS PPI IC50.
Type: biochemical

Going from `CC[C@H](C)[C@@H]1NC(=O)[C@H](C)N(C)C(=O)C[C@@H](C)N(C)C(=O)[C@H](CC(C)C)NC(=O)C(C)(C)N(C)C(=O)[C@H](CC(C)C)NC(=O)[C@H](CCc2ccc(C(F)(F)F)c(Cl)c2)NC(=O)[C@@H](C)N(C)C(=O)[C@H](Cc2ccc(C(F)(F)F)cc2)N(C)C(=O)CN(C)C(=O)CN(C)C1=O` [Compound 1385] (cyclo(I[Sar][Sar][NMePhe(4-CF3)][dNMeA][hPhe(3-Cl-4-CF3)]L[NMeAib]L[NMedβ3hAla][NMeA])) to `CC[C@H](C)[C@@H]1NC(=O)[C@H](CC(C)C)N(C)C(=O)C[C@@H](C)N(C)C(=O)[C@H](CC(C)C)NC(=O)C2(CCCC2)N(C)C(=O)[C@H](CC(C)C)NC(=O)[C@H](CCc2ccc(C(F)(F)F)c(F)c2)NC(=O)CN(C)C(=O)[C@H](CC2CCCCC2)N(C)C(=O)CN(C)C(=O)CN(C)C1=O` [Compound 2] (cyclo(I[Sar][Sar][NMeCha][Sar][hPhe(3-F,4-CF3)]L[NMeAc5c]L[NMedβ3hAla][NMeL])), the IC50 falls from 200 nM to 15 nM (13-fold).

First: CCO[C@@H]1C[C@H]2C(=O)NC3(CCC3)C(=O)N(C)[C@@H](C3CCCCC3)C(=O)N(C)[C@H](C)CC(=O)N(C)[C@@H](CC(C)C)C(=O)N[C@@H]([C@@H](C)CC)C(=O)N(C)[C@@H](C)C(=O)N3CC[C@H]3C(=O)N(C)[C@@H](Cc3ccc(C(F)(F)F)cc3)C(=O)N(C)CC(=O)N[C@@H](CCc3cc(F)c(C(F)(F)F)c(F)c3)C(=O)N2C1 [Compound 365] (cyclo([Ac4c][NMeChg][NMedβ3hAla][NMeL]I[NMeA][Aze][NMePhe(4-CF3)][Sar][hPhe(3,5-F2-4-CF3)][Hyp](Et)))
Second: CC[C@H](C)[C@@H]1NC(=O)[C@H](CC(C)C)N(C)C(=O)C[C@@H](C(=O)N2CCCCC2)N(C)C(=O)[C@H](C2CCCC2)N(C)C(=O)C2(CCCC2)NC(=O)[C@@H]2CCCN2C(=O)[C@H](CCc2ccc(OC(F)(F)F)c(Cl)c2)NC(=O)CN(C)C(=O)[C@H](CC2CCCCC2)N(C)C(=O)[C@@H]2CCN2C(=O)[C@H](C)N(C)C1=O [Compound 2057] ([NMeL]I[NMeA][Aze][NMeCha][Sar][X13]P[Ac5c][NMeGly(cPent)][NMeD]-Piperidide; lactam N-11 (inferred); C-terminus assumed)
The IC50 of the first is 35-fold higher: 38 nM for the first, 1.1 nM for the second. The second is the more potent here.

First: CC[C@H](C)[C@@H]1NC(=O)[C@H](CC(C)C)N(C)C(=O)C[C@@H](C(=O)N2CCCCC2)N(C)C(=O)[C@H](C2CCCCC2)N(C)C(=O)C2(CCCC2)NC(=O)[C@H]2COCCN2C(=O)[C@H](CCc2ccc(C(F)(F)F)c(Cl)c2)NC(=O)CN(C)C(=O)[C@H](CC2CCCCC2)N(C)C(=O)CN(C)C(=O)CN(C)C1=O [Compound 1445] ([NMeL]I[Sar][Sar][NMeCha][Sar][hPhe(3-Cl-4-CF3)][X124][Ac5c][NMeChg][NMeD]-Piperidide; lactam N-11)
Second: CC[C@H](C)[C@@H]1NC(=O)[C@H](CC(C)C)N(C)C(=O)C[C@@H](C(=O)N2CCCCC2)N(C)C(=O)[C@H](C2CCCCC2)N(C)C(=O)C2(CCCC2)NC(=O)[C@@H]2C[C@@H](OCCO)CN2C(=O)[C@H](CCc2ccc(C(F)(F)F)c(Cl)c2)NC(=O)CN(C)C(=O)[C@H](CC2CCCCC2)N(C)C(=O)CN(C)C(=O)CN(C)C1=O [Compound 2122, (3S,9S,18S,21S,25S,28S,34S,36R)-3-[2-[3-chloro-4-(trifluoromethyl)phenyl]ethyl]-28-cyclohexyl-9-(cyclohexylmethyl)-36-(2-hydroxyethoxy)-21-isobutyl-7,10,13,16,22,26,29-heptamethyl-18-[(1S)-1-methylpropyl]-25-(piperidine-1-carbonyl)spiro[1,4,7,10,13,16,19,22,26,29,32-undecazabicyclo[32.3.0]heptatriacontane-31,1′-cyclopentane]-2,5,8,11,14,17,20,23,27,30,33-undecone] ([NMeL]I[Sar][Sar][NMeCha][Sar][hPhe(3-Cl-4-CF3)][Hyp](Ethyl(2-OH))[Ac5c][NMeChg][NMeD]-Piperidide; lactam N-11)
The IC50 of the first is 540-fold higher: 250 nM for the first, 0.46 nM for the second. The second is the more potent here.

Compared with `CC[C@H](C)[C@@H]1NC(=O)[C@H](CC(C)C)N(C)C(=O)C[C@@H](C(=O)N2CCCCC2)N(C)C(=O)[C@H](C(C)C)N(C)C(=O)C2(CCCC2)NC(=O)[C@@H]2CCCN2C(=O)[C@H](CCc2ccc(C(F)(F)F)c(Cl)c2)NC(=O)CN(C)C(=O)[C@H](CC2CCCCC2)N(C)C(=O)[C@@H]2CCN2C(=O)[C@H](CC)N(C)C1=O` [Compound 1569] ([NMeL]I[NMeAbu][Aze][NMeCha][Sar][hPhe(3-Cl-4-CF3)]P[Ac5c][NMeV][NMeD]-Piperidide; lactam N-11), `CC[C@H](C)[C@@H]1NC(=O)[C@H](CC2CCC2)N(C)C(=O)C[C@@H](C)NC(=O)[C@H](C(C)C)N(C)C(=O)C2(CCCC2)NC(=O)[C@@H]2CCCN2C(=O)[C@H](CCc2ccc(C(F)(F)F)c(Cl)c2)NC(=O)CN(C)C(=O)[C@H](CC2CCCCC2)N(C)C(=O)[C@@H]2CCN2C(=O)[C@H](C)N(C)C1=O` [Compound 455] (cyclo([Ac5c][NMeV][d(β3hA)][NMeCba]I[NMeA][Aze][NMeCha][Sar][hPhe(3-Cl-4-CF3)]P)) is 3.7-fold higher in IC50: 16 nM for the first, 59 nM for the second. The first is the more potent here.

With `CC[C@H](C)[C@@H]1NC(=O)[C@H](CC(C)C)N(C)C(=O)C[C@@H](C(=O)N2CCOCC2)N(C)C(=O)[C@H](C2CCCC2)N(C)C(=O)C2(CCCC2)NC(=O)[C@@H]2CCCN2C(=O)[C@H](CCc2ccc(C(F)(F)F)c(Cl)c2)NC(=O)CN(CC)C(=O)[C@H](C2CCCC2)N(C)C(=O)[C@@H]2CCN2C(=O)[C@H](C)N(C)C1=O` [Compound 1142] ([NMeL]I[NMeA][Aze][NMeGly(cPent)][NEtG][hPhe(3-Cl-4-CF3)]P[Ac5c][NMeGly(cPent)][NMeD]-Morpholide; lactam N-11) the IC50 was 6.5 nM.
